According to ChEMBL document CHEMBL5727031, “Metabotropic glutamate receptor negative allosteric modulators (NAMS) and uses thereof” (2018):

Key:
[1] = (§1) In Vitro GIRK Thallium Flux Assay (60 minutes): Human Embryonic Kidney (HEK-293) cell lines co-expressing rat mGlu receptors 2, 3, 4, 6, 7 or 8 and G protein-coupled inwardly-rectifying potassium (GIRK) channels_ENREF_54 were grown in Growth Media containing 45% DMEM, 45% F-12, 10% FBS, 20 mM HEPES, 2 mM L-glutamine, antibiotic/antimycotic, non-essential amino acids, 700 μg/ml G418, and 0.6 μg/ml puromycin at 37° C. in the presence of 5% CO2. All cell culture reagents were purchased from Invitrogen Corp. (Carlsbad, Calif.) unless otherwise noted. Compound activity at the group II (mGlu2 and mGlu3) mGlus was assessed using thallium flux through GIRK channels. Briefly, cells were plated into 384-well, black-walled, clear-bottomed poly-D-lysine-coated plates at a density of 15,000 cells/20 μL/well in DMEM containing 10% dialyzed FBS, 20 mM HEPES, and 100 units/mL penicillin/streptomycin (assay media). Plated cells were incubated overnight at 37° C. in the presence of 5% CO2. The following day, the medium was exchanged from the cells to assay buffer [Hanks' balanced salt solution (Invitrogen) containing 20 mM HEPES, pH 7.3] using an ELX405 microplate washer (BioTek), leaving 20 μL/well, followed by the addition of 20 μL/well FluoZin2-AM (330 nM final concentration) indicator dye (Invitrogen; prepared as a stock in DMSO and mixed in a 1:1 ratio with Pluronic acid F-127) in assay buffer. Cells were incubated for 1 h at room temperature, and the dye exchanged to assay buffer using an ELX405, leaving 20 μL/well. Test compounds were diluted to 2 times their final desired concentration in assay buffer (0.3% DMSO final concentration). Agonists were diluted in thallium buffer [125 mM sodium bicarbonate (added fresh the morning of the experiment), 1 mM magnesium sulfate, 1.8 mM calcium sulfate, 5 mM glucose, 12 mM thallium sulfate, and 10 mM HEPES, pH 7.3] at 5 times the final concentration to be assayed. Cell plates and compound plates were loaded onto a kinetic imaging plate reader (FDSS 6000 or 7000; Hamamatsu Corporation, Bridgewater, N.J.). Appropriate baseline readings were taken (10 images at 1 Hz; excitation, 470±20 nm; emission, 540±30 nm) and test compounds were added in a 20 μL volume and incubated for either 2.5 min or 60 min as indicated before the addition of 10 μL of thallium buffer with or without agonist. After the addition of agonist, data were collected for approximately an additional 60 min. Data were analyzed using Excel (Microsoft Corp, Redmond, Wash.). The slope of the fluorescence increase beginning 5 s after thallium/agonist addition and ending 15 s after thallium/agonist addition was calculated, corrected to vehicle and maximal agonist control slope values, and plotted in using either XLfit (ID Business Solutions Ltd) or Prism software (GraphPad Software, San Diego, Calif.) to generate concentration-response curves. Potencies were calculated from fits using a four-point parameter logistic equation. For concentration-response curve experiments, compounds were serially diluted 1:3 into 10 point concentration response curves and were transferred to daughter plates using an Echo acoustic plate reformatter (Labcyte, Sunnyvale, Calif.). Test compounds were applied and followed by EC80 concentrations of glutamate.
[2] = as §1, with “Assay (2.5” for “Assay (60”, “additional 2.5” for “additional 60”
[3] = as above; remark: listed apart in the source
[4] = as §1; remark: listed apart in the source

Structure (SMILES)	EC50 ([1]; HEK293, 1 h)	EC50 ([2]; HEK293, 2.5 min)	EC50 ([3]; HEK293, 2.5 min)	EC50 ([4]; HEK293, 1 h)	also measured
Clc1ccccc1-c1cccc(-c2csc(-c3ccccc3)n2)c1	> 30 µM	> 30 µM	> 10 µM	> 10 µM	
O=C(O)c1ccccc1-c1cccc(-c2csc(-c3ccccc3)n2)c1	> 10 µM			> 10 µM	
c1ccc(-c2cccc(-c3csc(-c4ccc5ccccc5c4)n3)c2)cc1	4.98 µM	> 10 µM	> 30 µM	> 10 µM	
COc1ccc(-c2nc(-c3cccc(-c4ccccc4)c3)cs2)cc1OC	1.1 µM	2.58 µM	4.02 µM	> 10 µM	
O=C(O)c1cccc(-c2cccc(-c3coc(-c4ccccc4)n3)c2)c1				> 10 µM	
O=C(O)c1cc(-c2ccc(-c3csc(-c4ccccc4)n3)cc2)ccc1F	> 30 µM				
O=C1CC(c2cccc(Br)c2)Nc2ccc(NC(=O)OCc3ccccc3)cc2N1 (stereo unspecified)	> 10 µM				
Fc1ccc(-c2cccc(-c3csc(-c4cc5ccccc5o4)n3)c2)cc1	1.93 µM	2.57 µM	3.32 µM	> 10 µM	
O=C(O)c1ccccc1-c1cccc(-c2nc(-c3ccccc3)n(-c3ccccc3)n2)c1	> 30 µM			> 10 µM	
O=C(O)c1cc(-c2cccc(Oc3nc(-c4ccco4)cc(C(F)(F)F)n3)c2)ccc1F	> 30 µM				
Fc1ccccc1-c1cccc(-c2csc(-c3ccccc3)n2)c1	3.4 µM	1.59 µM	> 30 µM	> 30 µM	
Fc1ccc(-c2cccc(-c3csc(-c4cc5ccccc5s4)n3)c2)cc1	1.92 µM	> 10 µM	> 10 µM	> 10 µM	
Fc1ccc(-c2ccc(-c3csc(-c4ccccc4)n3)s2)cc1	> 10 µM	> 10 µM	> 10 µM	> 10 µM	
Clc1ccc(-c2cccc(-c3csc(-c4ccccc4)n3)c2)cc1	0.8 µM	0.57 µM	0.79 µM	1.33 µM	
COc1ccc(-c2cccc(-c3nc(-c4ccco4)cc(C(F)(F)F)n3)c2)cc1C(=O)O				> 10 µM	
Fc1ccc(-c2cccc(-c3csc(-c4ccc(C(F)(F)F)nc4)n3)c2)cc1	0.85 µM	1.35 µM	3.11 µM	2.55 µM	
NS(=O)(=O)c1cccc(-c2cn(-c3nc(-c4ccc(C(F)(F)F)nc4)cc(C(F)(F)F)n3)cn2)c1	> 10 µM				
Cc1ccccc1-c1cc(C(F)(F)F)nc(-c2cccc(-c3ccc(F)c(C(=O)O)c3)c2)n1				> 10 µM	
CC(C)(C)OC(=O)Nc1ccc(C(=O)OC(C)(C)C)cc1NC(=O)CC(=O)c1ccnc(C#N)c1	> 30 µM				

Structure (SMILES)	EC50 ([1]; HEK293, 1 h)	EC50 ([2]; HEK293, 2.5 min)	EC50 ([3]; HEK293, 2.5 min)	EC50 ([4]; HEK293, 1 h)	also measured
Fc1ccc(-c2csc(-c3ccccc3)n2)cc1	> 30 µM	> 10 µM	> 30 µM	> 30 µM	
O=C(O)c1ccccc1-c1cccc(-c2nc(-c3ccc(C(F)(F)F)nc3)cc(C(F)(F)F)n2)c1	> 10 µM			> 10 µM	
Cc1cc2c(cc1C(F)(F)F)NC(=O)CC(c1cccc(Br)c1)=N2	> 10 µM			> 10 µM	
Fc1ccc(-c2cccc(-c3csc(-c4ccccc4)n3)c2)cc1	0.48 µM	0.33 µM	1.21 µM	> 10 µM	
Fc1cccc(-c2cccc(-c3csc(-c4ccccc4)n3)c2)c1	0.35 µM	0.64 µM	> 10 µM	> 30 µM	
O/N=C\c1cc(-c2cccc(-c3csc(-c4ccccc4)n3)c2)ccc1F	> 10 µM	> 30 µM	> 30 µM	> 10 µM	
c1ccc(-c2cccc(-c3csc(-c4ccccc4)n3)c2)cc1				> 10 µM	
c1ccc(-c2cccc(-c3nc(-c4ccccc4)n(-c4ccccc4)n3)c2)cc1	> 10 µM	> 10 µM			
Fc1ccc(-c2cccc(-c3csc(-c4ccco4)n3)c2)cc1	> 10 µM	2.4 µM	> 10 µM	> 30 µM	
O=[N+]([O-])c1cccc(-c2cccc(-c3csc(-c4ccccc4)n3)c2)c1	> 10 µM	> 10 µM	> 10 µM	> 30 µM	
Cc1nc(-c2cccc(-c3ccc(F)cc3)c2)cs1	> 10 µM	> 10 µM	> 10 µM	> 10 µM	
c1ccc(-c2cccc(-c3csc(-c4cccc5ccccc45)n3)c2)cc1	> 10 µM	> 10 µM	> 30 µM	> 30 µM	
Cc1cc2c(cc1C(F)(F)F)NC(=O)CC(c1cccc(C#C[Si](C)(C)C)c1)N2 (stereo unspecified)	4.47 µM			4.53 µM	
Clc1cccc(-c2cccc(-c3csc(-c4ccccc4)n3)c2)c1	> 10 µM	> 10 µM	> 10 µM	> 10 µM	
O=C(O)c1cccc(-c2cccc(-c3nc(-c4ccccc4)nn3-c3ccccc3)c2)c1	> 10 µM			> 10 µM	
Cc1cc2c(cc1C(F)(F)F)NC(=O)CC(c1cccc(C#Cc3ccccc3)c1)=N2	> 10 µM			> 10 µM	
O=C(O)c1cccc(-c2cccc(-c3cn(-c4ccccc4)c(-c4ccccc4)n3)c2)c1	> 10 µM				
Cc1cc2c(cc1C(F)(F)F)NC(=O)CC(c1cccc(Oc3cccc(Br)c3)c1)=N2	> 10 µM				
O=C(O)c1cc(F)cc(-c2cccc(-c3nc(-c4ccoc4)cc(C(F)(F)F)n3)c2)c1					EC50 [1]: 0.31 µM; EC50 [2]: 0.35 µM; EC50 [3]: 2.21 µM; EC50 [4]: 1.56 µM

Structure (SMILES)	EC50 ([1]; HEK293, 1 h)	EC50 ([2]; HEK293, 2.5 min)	EC50 ([3]; HEK293, 2.5 min)	EC50 ([4]; HEK293, 1 h)	also measured
c1ccc(-c2nc(-c3cccc(-c4cccc(-c5nn[nH]n5)c4)c3)cs2)cc1				> 10 µM	
Cc1cc(NC(=O)OC(C)(C)C)c(NC(=O)CC(=O)c2cccc(-n3ccc4ccccc43)c2)cc1C(F)(F)F	> 10 µM			> 10 µM	
O=C(O)c1cccc(-c2cccc(-c3cc(-c4ccccc4)sn3)c2)c1				> 10 µM	
Cc1cc2c(cc1C(F)(F)F)NC(=O)CC(c1cccc(Oc3ccccc3)c1)N2 (stereo unspecified)	> 10 µM			> 10 µM	
O=C(O)c1cc(-c2cccc(-c3nc(-c4cc(C(F)(F)F)cc(C(F)(F)F)c4)cc(C(F)(F)F)n3)c2)ccc1F				> 10 µM	
Fc1ccc(-c2cccc(-c3csc(-c4ccoc4)n3)c2)cc1	2.5 µM	2.26 µM	> 10 µM	> 10 µM	
COc1ccccc1-c1cccc(-c2csc(-c3ccccc3)n2)c1	1.35 µM	1.81 µM	> 10 µM	> 10 µM	
O=C(O)c1ccc(-c2cccc(-c3nc(-c4ccc(C(F)(F)F)nc4)cc(C(F)(F)F)n3)c2)cc1	> 10 µM			> 10 µM	
Cc1cc2c(cc1C(F)(F)F)NC(=O)CC(c1cccc(Oc3cc(F)cc(F)c3)c1)=N2	> 10 µM				
COc1ccc(-c2cccc(-c3csc(-c4ccccc4)n3)c2)cc1	2.14 µM	1.73 µM	1.77 µM	2.86 µM	
Cc1noc(C)c1-c1cc(C(F)(F)F)nc(-c2cccc(-c3ccc(F)c(C(=O)O)c3)c2)n1	> 10 µM			> 10 µM	
O=C1CC(c2ccnc(Br)c2)=Nc2ccc(-c3ccc(C(F)(F)F)cc3C(F)(F)F)cc2N1				> 10 µM	
Cc1cc(-c2cccc(C3CC(=O)Nc4cc(NC(=O)Oc5ccccc5)ccc4N3)c2)cc(C)n1 (stereo unspecified)	> 10 µM			> 10 µM	
O=C(O)c1cc(-c2cccc(-c3cnc(-c4ccccc4)s3)c2)ccc1F				> 10 µM	
N#Cc1cccc(C2=Nc3ccc(Br)cc3NC(=O)C2)c1	> 30 µM			> 30 µM	
Cc1cc2c(cc1C(F)(F)F)NC(=O)CC(c1cccc(OCc3ccccc3)c1)N2 (stereo unspecified)	> 10 µM				
Cc1cc2c(cc1C(F)(F)F)NC(=O)CC(c1cccc(Oc3ncccn3)c1)N2 (racemic)		> 10 µM			
Cc1cc(-c2cccc(C3CC(=O)Nc4cc(NC(=O)OCc5ccccc5)ccc4N3)c2)cc(C)n1 (racemic)		> 10 µM			
